In brackets after ≈: the same amount, converted by molar mass.
Assays:
[1] = biological target: T1, acid ceramidase (hACR) (Homo sapiens, UniProt Q13510); test: Acid ceramidase inhibition, biochemical fluorescent assay with cell lysates overexpressing acid ceramidase, substrate Rbm14-12; conditions: cell lysates overexpressing acid ceramidase; 1 hr preincubation at RT; pH 4.5; substrate Rbm14-12 6.3 μM; read-out: hACR IC50
T1 construct: expressed in transfected cells; cell lysate used
T1 sequence (Q13510 143-395 limits assumed): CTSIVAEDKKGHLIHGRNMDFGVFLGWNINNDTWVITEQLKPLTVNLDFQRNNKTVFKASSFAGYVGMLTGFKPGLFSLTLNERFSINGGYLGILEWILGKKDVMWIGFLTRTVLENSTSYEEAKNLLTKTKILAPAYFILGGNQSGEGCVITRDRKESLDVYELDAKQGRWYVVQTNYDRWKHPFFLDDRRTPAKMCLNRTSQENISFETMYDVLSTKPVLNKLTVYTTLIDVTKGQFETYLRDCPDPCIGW
T1 sequence (Q13510 22-142 limits assumed): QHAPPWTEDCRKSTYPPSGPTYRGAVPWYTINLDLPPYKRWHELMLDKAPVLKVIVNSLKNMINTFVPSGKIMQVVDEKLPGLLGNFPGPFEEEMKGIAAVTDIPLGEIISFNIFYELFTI
In short: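 Enzyme source was lysate (10 µg protein) from cells overexpressing acid ceramidase, preincubated 1 hr at RT with compound dose series in 25 mM NaAc, 100 mM NaCl, pH 4.5. Rbm14-12 (6.3 μM final) reacted 1 hr at RT; stop buffer (methanol, NaIO4, glycine, pH 10.6) 1 hr, fluorescence ex360/em446; IC50 from four-parameter fit.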

[2] = Compound solubility in water; assay type: physicochemical

Row | IC50 [1] [nM] | solubility [2] [µM] | SMILES
1 | 200 to 1000 | 1.5 (≈ 0.487 µg/mL) | CC1(C)CCc2ccccc2N1C(=O)NCCOc1ccccc1 [Example 18, 2,2-Dimethyl-N-(2-phenoxyethyl)-3,4-dihydroquinoline-1(2)-carboxamide]
2 | 200 to 1000 | 6.5 (≈ 2.2 µg/mL) | COC1CC(C)(C)N(C(=O)NCCc2ccccc2)c2ccccc21 (centres unmarked) [Example 19, 4-Methoxy-2,2-dimethyl-N-phenethyl-3,4-dihydroquinoline-1(2)-carboxamide]
3 | 200 to 1000 | 32.2 (≈ 13.1 µg/mL) | CN1CCC(c2cccc3c2CN(C(=O)NCCc2ccccc2)C(C)(C)C3)CC1 [Example 20, 3,3-Dimethyl-8-(1-methylpiperidin-4-yl)-N-phenethyl-3,4-dihydroisoquinoline-2(1H)-carboxamide]
4 | > 1000 | 34.2 (≈ 13.9 µg/mL) | CN1CCC(c2ccc3c(c2)CC(C)(C)N(C(=O)NCCc2ccccc2)C3)CC1 [Example 21, 3,3-Dimethyl-6-(1-methylpiperidin-4-yl)-N-phenethyl-3,4-dihydroisoquinoline-2(1H)-carboxamide]
5 | 200 to 1000 | 5.7 (≈ 1.76 µg/mL) | CC1(C)Cc2ccccc2CN1C(=O)NCCc1ccccc1 [Example 22, 3,3-Dimethyl-N-phenethyl-3,4-dihydroisoquinoline-2(1H)-carboxamide]
6 | 200 to 1000 | 33.6 (≈ 13.6 µg/mL) | CN1CCC(c2ccc3c(c2)CCC(C)(C)N3C(=O)NCCc2ccccc2)CC1 [Example 23, 2,2-Dimethyl-6-(1-methylpiperidin-4-yl)-N-phenethyl-3,4-dihydroquinoline-1(2H)-carboxamide]
7 | 200 to 1000 | 40.6 (≈ 14.5 µg/mL) | CCCCNC(=O)N1c2cccc(C3CCN(C)CC3)c2CCC1(C)C [Example 24, N-Butyl-2,2-dimethyl-5-(1-methylpiperidin-4-yl)-3,4-dihydroquinoline-1(2H)-carboxamide]
8 | 200 to 1000 | 23.2 (≈ 6.04 µg/mL) | CC1(C)CCCCN1C(=O)NCCc1ccccc1 [Example 25, 2,2-Dimethyl-N-phenethylpiperidine-1-carboxamide]
9 | > 1000 | 43.7 (≈ 15.7 µg/mL) | CN1CCN(C2CCN(C(=O)NCCc3ccccc3)C(C)(C)C2)CC1 (centres unmarked) [Example 26, 2,2-Dimethyl-4-(4-methylpiperazin-1-yl)-N-phenethylpiperidine-1-carboxamide]
10 | 200 to 1000 | 16.8 (≈ 4.37 µg/mL) | CCCCNC(=O)N1c2ccccc2CCC1(C)C [Example 27, N-Butyl-2,2-dimethyl-3,4-dihydroquinoline-1(2H)-carboxamide]
11 | > 1000 | 3.1 (≈ 0.999 µg/mL) | CC1(C)CC(=O)c2ccccc2N1C(=O)NCCc1ccccc1 [Example 28, 2,2-Dimethyl-4-oxo-N-phenethyl-3,4-dihydroquinoline-1(2H)-carboxamide]
12 | > 1000 | 31.7 (≈ 12.9 µg/mL) | CN1CCN(c2cccc3c2CCC(C)(C)N3C(=O)NCCc2ccccc2)CC1 [Example 29, 2,2-Dimethyl-5-(4-methylpiperazin-1-yl)-N-phenethyl-3,4-dihydroquinoline-1(2H)-carboxamide]
13 | 200 to 1000 | 36.4 (≈ 14.8 µg/mL) | CN1CCN(c2ccc3c(c2)CCC(C)(C)N3C(=O)NCCc2ccccc2)CC1 [Example 30, 2,2-Dimethyl-6-(4-methylpiperazin-1-yl)-N-phenethyl-3,4-dihydroquinoline-1(2H)-carboxamide]
14 | 200 to 1000 | 22.7 (≈ 8.14 µg/mL) | CCCCNC(=O)N1c2cccc(N3CCN(C)CC3)c2CCC1(C)C [Example 33, N-Butyl-2,2-dimethyl-5-(4-methylpiperazin-1-yl)-3,4-dihydroquinoline-1(2H)-carboxamide]

Row | SMILES | IC50 [1] [nM] | solubility [2] [µM]
15 | CC1(C)CC2(CCCCO2)CCN1C(=O)NCCc1ccccc1 (centres unmarked) [Example 17, 8,8-Dimethyl-N-phenethyl-1-oxa-9-azaspiro[5.5]undecane-9-carboxamide] | 200 to 1000 | 28.5 (≈ 9.42 µg/mL)
16 | CCCCNC(=O)N1CCC2(CCCCO2)CC1(C)C (centres unmarked) [Example 31, N-Butyl-8,8-dimethyl-1-oxa-9-azaspiro[5.5]undecane-9-carboxamide] | > 1000 | 32 (≈ 9.04 µg/mL)

— patent US20220380314A1, “SUBSTITUTED, SATURATED AND UNSATURATED N-HETEROCYCLIC CARBOXAMIDES AND RELATED COMPOUNDS FOR THEIR USE IN THE TREATMENT OF MEDICAL DISORDERS” (Bial - R&D Investments, S.A., priority 2019, published 2022)
